# Patent publication US7395112B2, “Method and apparatus for treating tumors using low strength electric fields” (priority 2002, dated 2008)
# Columns and labels:
# CT-26 colon carcinoma [1] = assay: LEF with chemotherapy (LEFCT-EC) in mice bearing 5 mm CT-26 tumors; assay type: in vivo, BALB/C mice
# Procedure: Mice: BALB/C male mice were obtained from the breeding colony of Tel-Aviv University, Israel. Mice were used at 8-12 weeks of age. Animal care and experimentation were performed in accordance with the Tel-Aviv University guidelines.
# Tumor: Colon carcinoma tumors were grown in mice with CT-26, a metastatic colon carcinoma cell line induced in a BALB/c mouse by chemical carcinogenesis. Cells were cultured in Dulbecco's modified Eagle's medium (DMEM) supplemented with 100 U/ml penicillin, 100 μg/ml streptomycin, 2 mM L-glutamine; 1 mM sodium pyruvate; 1% non-essential amino acid solution; 10% heat-inactivated fetal calf serum. Cultures were maintained at 37° C. in a humidified incubator with a 5% CO2 atmosphere.
# Tumor cell inoculation: Mice were inoculated intracutaneously with 10^5 CT-26 cells suspended in 100 μL PBS into the low lateral side of the back. Local tumor growth was determined by measuring three mutually orthogonal tumor diameters with a caliper. The volume of tumor was calculated using the formula: Vol=D1×D2×D3×π/6, where D1, D2, D3 are three mutually orthogonal tumor diameters.
# (§1) Low-strength electric field stimulation: To subject tumors to LEFs, stainless steel needles were used as electrodes. Tumors 5 mm in diameter (about 65 mm^3) were transfixed by electrode needles, with one cathode in the center of the tumor and three or four peripheral anodes. The electrodes were connected to an electric pulse generator and to an oscilloscope. Pulsed LEFs with a repetition frequency of 500 Hz and a pulse width of 180 μs were applied at 20, 40, 60 and 70 V/cm for a duration 12 min or 20 min. The electric pulses were administered 2-4 min following chemotherapeutic drug administration. Mice were anesthetized 10 min before the procedure.
# (§2) Chemotherapeutic agents: Bleomycin (Sigma Israel Chemicals Ltd., Israel; Megapharm Ltd., Israel) was kept at a temperature of 2-8° C., and was dissolved in pyrogen-free PBS to a concentration enabling dosages of 50 U/kg body weight prior to use. BCNU was administered at a dosage of 35 mg/kg body weight, and 5-FU (Abic, Israel) was used at a dose of 100 mg/kg body weight.
# Anesthesia: Mice were anesthetized using an anesthetic cocktail comprising a dose of imalgen at 100 mg/kg body weight and xylazine hydrochloride at 6.25 mg/kg body weight dissolved in PBS injected intraperitoneally in a volume of 0.25 ml per mouse 10 min prior to LEF treatment.
# Statistical analysis: Survival times (Kaplan-Meir test), survival comparisons between groups (Mantel-Cox test), and tumor volume differences between groups were plotted using StatSoft “Statistica” statistical software.
# Effect of LEF duration and strength on potentiation of bleomycin for treatment of colon carcinoma: In order to determine the optimal LEFCT-EC/bleomycin therapy for treatment of colon cancer, mice bearing CT-26 tumors were treated with LEFs of 40 V/cm for 12 min, and 20 V/cm for 12 or 20 min with or without administration of bleomycin, and survival was analyzed.
# B16-F10.9 melanoma [2] = assay: LEFCT-EC in mice bearing subcutaneous B16-F10.9 melanoma; assay type: in vivo, C57BL/6 mice; conditions: for Tumor size (mean ± standard error): 7 days after treatment
# Procedure: Animals: C57BL/6 male mice were obtained from the breeding colony of Tel-Aviv University, Israel. Mice were used at 8-12 weeks of age. Animal care and experimentation was carried out in accordance with Tel-Aviv University guidelines.
# Melanoma tumor cell line: The highly metastatic, poorly immunogenic B16-F10.9 (F10.9) subclone of the B16 melanoma cell line was used to generate melanoma tumors in mice (Eisenbach L. et al., 1984. Int J Cancer 34:567). Cells were maintained in DMEM supplemented with 100 U/ml penicillin, 100 μg/ml streptomycin, 4 mM glutamine, 1 mM sodium pyruvate, 1% non-essential amino acids and 10% heat-inactivated fetal calf serum (FCS); and were cultured at 37° C. in a humidified incubator in an atmosphere of 7% carbon dioxide and 93% air.
# Tumor generation protocol: F10.9 tumors were induced in C57BL/6 mice by subcutaneous injection of 2×10^5 F10.9 cells. Mice were subjected to experimental treatments once tumors reached 5 mm in diameter (about 60-70 mm^3). Chemotherapeutic drugs: The following chemotherapeutic drugs used were: cis-platinum (II) diamminedichloride (cisplatin; #P-4394, Sigma, Israel), dissolved in PBS for injections; Taxol (Mead Johnson Oncology Products, A Bristol-Myers Squibb, USA), obtained as a sterile nonpyrogenic solution containing 6 mg/ml paclitaxel, 527 mg/ml of purified Cremophor EL (polyoxyethylated castor oil) and 5-FU (Abic, Israel).
# Low-strength electric field enhanced cancer therapy protocol: Mice were subjected to a single treatment of LEFCT-EC, once tumors reached 5 mm in diameter (11-17 days following tumor cell inoculation). Volumes of up to 100 μl of chemotherapeutic agents were injected into tumor loci, and exposures to electric fields were carried out 3-4 min following intratumoral injection of chemotherapeutic agents. To expose tumors to electric fields, stainless steel electrode needles (Karlsbader insect pins No 0. BioQuip Products, USA) soldered at their brassy ends with thin isolated copper wires were used. Electrodes were inserted to a depth of about 7 mm percutaneously into and in the immediate vicinity of the tumor; one cathode needle in the center of the tumor and three peripheral anodes, at a distance of about 5 mm from the cathode. The needles were connected to an electric pulse generator (Grass S48 Stimulator, USA). The field strength applied was about 40 V/cm; the repetition frequency, 500 Hz; and the pulse width, 180 μs. All mice were anesthetized prior to LEF treatment.
# Statistical analysis: Statistical analysis of survival times (Kaplan-Meir test), survival comparisons between groups (Mantel-Cox test) and tumor volume differences between groups (Kolmogorov-Smirnov test) were performed using StatSoft Statistica statistical software. The 10-15% mortality rate in the 5 days following LEF or LEF-chemotherapy was considered as treatment-caused, therefore such cases of mortality were excluded.
# Tumor volume determination: performed as described above in Example 1 of the Examples section.
# B16-F10.9 melanoma [3] = assay: Rechallenge with B16-F10.9 cells of mice cured by LEFCT-EC; assay type: in vivo, C57BL/6 mice; conditions: mice cured by LEFCT-EC with the drug, challenged with 2×10^5 B16-F10.9 cells
# Description: FIG. 17 is a data plot depicting the cumulative survival of mice previously bearing B16-F10.9 melanoma and cured by LEFCT-EC with cisplatin or taxol following challenge with B16-F10.9 melanoma cells. Mice cured by LEF-chemotherapy that survived for 120-180 days after initial tumor inoculation, were challenged with 2×10^5 B16-F10.9 cells subcutaneously.
# Effect of curative LEFCT-EC treatment on generation of anti B16-F10.9 tumor resistance: The resistance of mice cured of B16-F10.9 melanoma by LEF-chemotherapy was analyzed by challenging such cured mice with a tumorigenic dose of B16-F 10.9 melanoma cells.
# CT-26 colon carcinoma [4] = assay: LEFCT-EC with BCNU in mice bearing large (10 or 15 mm) CT-26 tumors; assay type: in vivo, BALB/C mice; conditions: for time after which all mice were dead: BCNU 35 mg/kg only; for cure rate: LEF 40 V/cm 12 min + BCNU 35 mg/kg
# Procedure: as §1, §2
# Effect of LEFCT-EC with BCNU on CT-26 development in mice bearing large tumors: In order to examine the effectiveness of LEFCT-EC with BCNU on tumor development in mice with a large tumor burden, mice bearing tumors of 10 mm (about 523 mm^3) or 15 mm in diameter (about 1,760 mm^3). These animals were treated with 4 electrodes placed 7 mm apart.
# CT-26 colon carcinoma [5] = assay: CT-26 cells inoculated with splenocytes from mice cured by LEFCT-EC with BCNU; assay type: in vivo, BALB/C mice; conditions: donors cured by LEFCT-EC with BCNU; tumor cells to splenocytes 1:100
# Description: Anti-tumor effect of splenocytes from tumor bearing mice cured by LEFCT-EC with BCNU: In order to examine whether development of resistance against challenge with CT-26 tumors in mice cured of such tumors via LEFCT-EC with BCNU is immunologically mediated, normal mice were inoculated with a dose of CT-26 tumor cells mixed with splenocytes from cured animals. […] Thus, curative LEFCT-EC+BCNU treatment of CT-26 tumor bearing mice induces immunological resistance to subsequent growth of such tumors in such mice.
# CT-26 colon carcinoma [6] = test system: CT-26 colon carcinoma
# [7] = LEF-CT (drug + LEF), cisplatin 4 mg/kg, bleomycin 8 U/kg, 5-FU 150 mg/kg, taxol 20 mg/kg
# [8] = intratumoral drug injection alone, same doses
# [9] = chemotherapy alone, intratumoral, no LEF
compound,measurement,setting,value
"O=c1[nH]cc(F)c(=O)[nH]1 [5-FU, 5-fluorouracil]",time at which half of the mice were still alive,CT-26 colon carcinoma [1]; 5-FU 100 mg/kg intratumoral or intravenous + LEF 40 V/cm 12 min,80 days
same,Tumor size (mean ± standard error),B16-F10.9 melanoma [2]; [7],143 ± 52 mm^3
same,Tumor size (mean ± standard error),B16-F10.9 melanoma [2]; [8],460 ± 54 mm^3
"N.N.[Cl-].[Cl-].[Pt+2] [cisplatin, cis-platinum (II) diamminedichloride]",Tumor size (mean ± standard error),B16-F10.9 melanoma [2]; [7],83 ± 57 mm^3
same,mean survival time (MST),"B16-F10.9 melanoma [2]; LEF-chemotherapy: intratumoral drug + LEF about 40 V/cm 12 min, 120 days (cisplatin) or 180 days (taxol, bleomycin) after inoculation",51.1 days
same,animals tumor free,"B16-F10.9 melanoma [2]; LEF-chemotherapy, 120 days after tumor inoculation",13.5%
same,effect of drug alone on survival,B16-F10.9 melanoma [2]; [9],no significant effect
same,mean survival time (MST),B16-F10.9 melanoma [2]; [9],29.5 days
same,Tumor size (mean ± standard error),B16-F10.9 melanoma [2]; [8],1684 ± 204 mm^3
same,"LEFCT-EC treated mice that died two months and later after treatment with pulmonary metastatic foci, free of primary tumor","B16-F10.9 melanoma [2]; pooled statement for cisplatin, taxol or bleomycin",About 10%
same,MST of challenged mice,B16-F10.9 melanoma [3],48.7 days
O=NN(CCCl)C(=O)NCCCl [BCNU],survival rate,"CT-26 colon carcinoma [1]; BCNU 35 mg/kg intratumoral + LEF 40 V/cm 12 min, after 52 days, unchanged until day 110",83%
same,survival,"CT-26 colon carcinoma [1]; BCNU + LEF 40 V/cm, comparison with surgery, after about 60 days until about 120 days",40%
same,cure rate,"CT-26 colon carcinoma [1]; LEFCT-EC: drug + LEF 40 V/cm 12 min, 5 mm tumors",83%
same,tumor size with drug only relative to drug + LEF,CT-26 colon carcinoma [1]; after 21 days,about triple the size
same,time after which half the mice died,"CT-26 colon carcinoma [1]; drug alone, no LEF, intratumoral injection (5-FU intratumoral or intravenous), 5 mm tumors",about 48 days
same,tumor size with LEFCT-EC + BCNU relative to BCNU alone,CT-26 colon carcinoma [4]; 10 mm tumors,approximately an order of magnitude smaller
same,time after which all mice were dead,CT-26 colon carcinoma [4]; 10 mm tumors,90 days
same,time after which all mice were dead,CT-26 colon carcinoma [4]; 15 mm tumors,87 days
same,cure rate,CT-26 colon carcinoma [4]; 10 mm tumors,over 80%
same,cure rate,CT-26 colon carcinoma [4]; 15 mm tumors,100%
same,survival,"CT-26 colon carcinoma [4]; LEF with BCNU, 15 mm tumors, after 100 days",100%
same,tumor detection,"CT-26 colon carcinoma [4]; LEFCT-EC with BCNU, 15 mm tumors, after 42 days",no tumors were detected
same,tumor growth with splenocytes from cured mice,CT-26 colon carcinoma [5],completely prevent growth of tumors
same,tumor volume of reinoculated mice relative to first-time inoculated mice,CT-26 colon carcinoma [6]; after 18 days,about one order of magnitude smaller
same,day by which half of the cured and challenged mice were still alive,"CT-26 colon carcinoma [6]; mice cured by LEFCT-EC with BCNU, challenged with 10^5 CT-26 cells",~63 days
